# Data from PubChem BioAssay AID1817 (Sanford-Burnham Center for Chemical Genomics, 2009).
# The source made the active and inactive calls.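 The calls were made as follows: active = displacement of at least 50% at 20 µM, with a fluorescence ratio check between 0.3 and a set limit; inactive = the rest.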
# Molecular target: E3 ubiquitin-protein ligase SIAH1 (Homo sapiens) (UniProt Q8IUQ4)
# Assay: Siah-1 peptide-binding antagonists, primary screen, biochemical, fluorescence polarization, rhodamine-plectin, uHTS (AID 1817)
# Settings: Siah-1 / rhodamine-plectin peptide fluorescence polarization
# E3 ubiquitin-protein ligase SIAH1 (Homo sapiens), sequence (Q8IUQ4 whole entry, looked up): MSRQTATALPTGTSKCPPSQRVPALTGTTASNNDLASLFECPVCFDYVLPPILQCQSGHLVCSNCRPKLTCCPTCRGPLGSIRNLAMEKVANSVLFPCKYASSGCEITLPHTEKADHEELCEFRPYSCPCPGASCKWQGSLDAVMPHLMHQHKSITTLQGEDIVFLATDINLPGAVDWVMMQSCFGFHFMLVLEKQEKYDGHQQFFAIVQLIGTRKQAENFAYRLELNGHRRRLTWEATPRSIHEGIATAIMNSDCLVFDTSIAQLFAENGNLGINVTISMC
row,SMILES,IC50
1,O=C(CCN1CCN(Cc2ccccc2)CC1)Nc1cccc(Cl)c1,> 200 µM (inactive)
2,Oc1ccc(N=Cc2ccc(OCc3ccccc3)cc2)cc1,inactive
3,COCCn1nnnc1C(c1cc2ccc(OC)cc2[nH]c1=O)N1CCc2ccccc2C1 (configuration not stated),> 200 µM (inactive)
4,COc1ccc(-c2cnnn2-c2ccc(N)cc2)cc1OC,> 200 µM (inactive)
5,CCOC(=O)c1c(C)[nH]c2c1-c1ccccc1C(=O)C2=O,> 200 µM (inactive)
6,CC(=O)Nc1ccc(N=Cc2c(O)c(C(=O)Nc3ccccc3)cc3ccccc23)cc1,24.9 µM
7,CC1=C(C#N)c2nc(N)c(C#N)c(C)c2/C1=C\c1ccc(-c2ccccc2C(=O)O)o1,20.6 µM
8,Oc1ccc(N=Cc2sc3ccccc3c2Cl)cc1,inactive
9,O=C(Cn1cnc2scc(-c3ccccc3)c2c1=O)NCc1ccco1,> 200 µM (inactive)
10,O=S(=O)(Nc1cc2nc3ccccc3nc2n1Cc1ccccc1)c1ccc(Cl)cc1,> 200 µM (inactive)
11,O=C(O)CCN1C(=O)/C(=C/c2cn(-c3ccccc3)nc2-c2cccs2)SC1=S,> 200 µM (inactive)
12,Nc1c(C(=O)NCc2ccco2)c2nc3ccccc3nc2n1CCc1ccccc1,> 200 µM (inactive)
13,O=C1C=C(NCc2ccccc2)c2ccccc2C1=O,> 200 µM (inactive)
14,CC(C)(C)c1cc(-c2csc(Nc3ccccc3)[n+]2Cc2ccc(C(=O)O)cc2)cc(C(C)(C)C)c1O,> 200 µM (inactive)
15,CC1=CC(C)(C)N2C(=O)C(=Nc3ccc(O)cc3)c3cccc1c32,inactive
16,O=C(NCc1c(F)cccc1F)c1cc(COc2c(F)cccc2F)on1,> 200 µM (inactive)
17,CCOC(=O)C1(C)C=C(Nc2ccc(O)cc2)C(=O)N1c1ccc(O)cc1 (configuration not stated),> 200 µM (inactive)
18,Nc1ccc(S(=O)(=O)Nc2ccc(S(N)(=O)=O)cc2)cc1,> 200 µM (inactive)
19,Cc1c(Cc2ccccc2)c(=O)oc2c(C)c(OCC(=O)N[C@@H](Cc3ccccc3)C(=O)O)ccc12,inactive

row,SMILES,IC50
1,CCC1=Nc2cc(C(=O)O)ccc2Sc2ccccc21,> 200 µM (inactive)
2,CC1CCCCC1NC(=O)CCS(=O)(=O)c1ccc2c(c1)NC(=O)CO2 (configuration not stated),> 200 µM (inactive)
3,CN(C)c1cccc2c(C=C(C#N)C#N)ccc(N(C)C)c12,> 200 µM (inactive)
4,O=C(/C=C/c1ccco1)OCc1nnc(-c2ccccc2)o1,> 200 µM (inactive)
5,CCN(CC)CCOC(=O)c1ccc(N/C=C(/C#N)c2nc(-c3cc4ccccc4oc3=O)cs2)cc1,11.2 µM
6,O=C(Nc1ccc(Br)cc1)c1ccc(N2C(=O)C3CC=CCC3C2=O)cc1 (configuration not stated),18.6 µM
7,O=C(O)c1cc(Cl)c(Cl)cc1C(=O)Nc1cccc2cccnc12,> 200 µM (inactive)
8,Cc1ccc(CNc2ccc(O)cc2)cc1,inactive
9,CCC(C)N1C(=O)/C(=C/c2c(NCCCOC(C)C)nc3c(C)cccn3c2=O)SC1=S (configuration not stated),> 200 µM (inactive)
10,O=C(Nc1ccc(S(=O)(=O)N2CCOCC2)cc1)c1ccc(=O)[nH]c1,20.5 µM
11,N#Cc1c(NC(=O)c2ccc(Br)o2)n(-c2ccccc2)c2nc3ccccc3nc12,> 200 µM (inactive)
12,Cc1cc(C)c(C#N)c(Nc2ccccc2C)n1,> 200 µM (inactive)
13,Oc1c(Br)cc(Br)cc1CNc1ccc(F)cc1,> 200 µM (inactive)
14,CCCCn1c(NS(=O)(=O)c2ccccc2)c(S(=O)(=O)c2ccc(C)cc2)c2nc3ccccc3nc21,> 200 µM (inactive)
15,CCCCn1c(NS(=O)(=O)c2ccccc2)c(C(=O)OCC)c2nc3ccccc3nc21,> 200 µM (inactive)
16,CN(C)CCOC(=O)CCc1ccccc1,> 200 µM (inactive)
17,Cc1ccc(-n2cccn2)c([C@@H]2C[C@H]3CN(C)C(=O)[C@]34CCCN24)c1,> 200 µM (inactive)
18,CSc1n[nH]c(NCc2ccc(Cl)cc2)n1,> 200 µM (inactive)
